Laboratory results taken from the supplement of paper PMC11451515.

Test system: SEM cells
Assay: cell viability relative to DMSO control; higher = less cytotoxic
Conditions: 48 h
Summary of the method: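 NOMO1 or SEM cells were plated at 500 cells/well and P12-Ichikawa cells at 1000 cells/well in 1536-well plates (5 μl), after each leukemia line had been adapted for at least four passages in each medium. Pin dosing delivered library compounds in DMSO at 11 threefold concentrations, 47 μM to 0.79 nM. CellTiter-Glo One luminescence was read after 48 h at 37°C. Viability is reported as a per-plate percentage of DMSO wells, with cell-free wells as background.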

[1] = HPLM + 10% dialyzed FBS, 0.000781 µM
[2] = HPLM + 10% dialyzed FBS, 0.00234 µM
[3] = HPLM + 10% dialyzed FBS, 0.00702 µM
[4] = HPLM + 10% dialyzed FBS, 0.0211 µM
[5] = HPLM + 10% dialyzed FBS, 0.0632 µM
[6] = HPLM + 10% dialyzed FBS, 0.19 µM
[7] = HPLM + 10% dialyzed FBS, 0.569 µM
[8] = HPLM + 10% dialyzed FBS, 1.71 µM
[9] = HPLM + 10% dialyzed FBS, 5.12 µM
[10] = HPLM + 10% dialyzed FBS, 15.4 µM
[11] = HPLM + 10% dialyzed FBS, 46.1 µM
[12] = RPMI 5 mM glucose + 10% FBS, 0.000781 µM
[13] = RPMI 5 mM glucose + 10% FBS, 0.00234 µM
[14] = RPMI 5 mM glucose + 10% FBS, 0.00702 µM
[15] = RPMI 5 mM glucose + 10% FBS, 0.0211 µM
[16] = RPMI 5 mM glucose + 10% FBS, 0.0632 µM
[17] = RPMI 5 mM glucose + 10% FBS, 0.19 µM
[18] = RPMI 5 mM glucose + 10% FBS, 0.569 µM
[19] = RPMI 5 mM glucose + 10% FBS, 1.71 µM
[20] = RPMI 5 mM glucose + 10% FBS, 5.12 µM
[21] = RPMI 5 mM glucose + 10% FBS, 15.4 µM
[22] = RPMI 5 mM glucose + 10% FBS, 46.1 µM
[23] = RPMI 5 mM glucose + 10% dialyzed FBS, 0.000781 µM
[24] = RPMI 5 mM glucose + 10% dialyzed FBS, 0.00234 µM
[25] = RPMI 5 mM glucose + 10% dialyzed FBS, 0.00702 µM
[26] = RPMI 5 mM glucose + 10% dialyzed FBS, 0.0211 µM
[27] = RPMI 5 mM glucose + 10% dialyzed FBS, 0.0632 µM
[28] = RPMI 5 mM glucose + 10% dialyzed FBS, 0.19 µM
[29] = RPMI 5 mM glucose + 10% dialyzed FBS, 0.569 µM
[30] = RPMI 5 mM glucose + 10% dialyzed FBS, 1.71 µM
[31] = RPMI 5 mM glucose + 10% dialyzed FBS, 5.12 µM
[32] = RPMI 5 mM glucose + 10% dialyzed FBS, 15.4 µM
[33] = RPMI 5 mM glucose + 10% dialyzed FBS, 46.1 µM

Compound	cell viability [1]	cell viability [2]	cell viability [3]	cell viability [4]	cell viability [5]	cell viability [6]	cell viability [7]	cell viability [8]	cell viability [9]	cell viability [10]	cell viability [11]	cell viability [12]	cell viability [13]	cell viability [14]	cell viability [15]	cell viability [16]	cell viability [17]	cell viability [18]	cell viability [19]	cell viability [20]	cell viability [21]	cell viability [22]	cell viability [23]	cell viability [24]	cell viability [25]	cell viability [26]	cell viability [27]	cell viability [28]	cell viability [29]	cell viability [30]	cell viability [31]	cell viability [32]	cell viability [33]
CC(N[C@H]1CCCC[C@@H]1NC(=O)c1ccc(Cl)cc1)c1cccc2ccccc12 (stereo partly drawn)	98.2%	105%	110%	114%	111%	112%	101%	115%	112%	118%	119%	92.2%	102%	109%	120%	107%	108%	121%	113%	119%	138%	110%	120%	112%	109%	114%	116%	114%	125%	127%	115%	133%	121%
CNCC[C@H](Oc1cccc2ccccc12)c1cccs1	121%	128%	110%	122%	121%	130%	111%	99.4%	110%	84.2%	46.4%	124%	117%	119%	116%	110%	136%	111%	107%	86%	96.2%	24%											
O=C(c1ccccc1)c1ccc2n1CCC2C(=O)O (stereo not drawn)	117%	118%	104%	107%	114%	113%	112%	113%	81.9%	67.8%	77.6%												124%	121%	129%	134%	125%	121%	118%	114%	90.3%	59.4%	72.2%
CCOC(=O)\C1=C\[C@]2(CC)CCCN3CCC4=C([C@H]23)[N]1C5=C4C=CC=C5	71.6%	100%	87.6%	111%	118%	103%	104%	111%	114%	97.7%	80.7%	103%	104%	111%	114%	121%	112%	110%	108%	109%	107%	77.1%	93.7%	111%	112%	108%	116%	124%	126%	108%	118%	105%	94.7%
CN1CC(=O)N2[C@H](c3ccc4c(c3)OCO4)c3[nH]c4ccccc4c3C[C@@H]2C1=O	98.8%	88.6%	97.2%	96.3%	98%	102%	108%	106%	93.9%	100%	85.9%	92.6%	85.3%	85.8%	97.9%	102%	108%	92.6%	88.8%	82.1%	85.3%	83.5%	94%	88.8%	88.3%	108%	106%	69.6%	105%	113%	105%	89%	95.4%
